Experimental data published in US20230310453A1, “METHODS FOR EXTRACTING NEUTROPHIL SERINE PROTEASES AND TREATING DIPEPTIDYL PEPTIDASE 1-MEDIATED CONDITIONS” (INSMED, INC., priority 2020, published 2023).

Legend:
Assay type in all cases: in vivo, human
active NE [1] = assay: Active NE concentration in patients' WBC samples (kinetic NE assay)
Description: (§1) In the NE kinetic assay, an exogenous peptide substrate with high specificity for NE (shown in Table 1A) was cleaved by NE present in the sample, generating a fluorophore reaction product 7-amino 4-methyl coumarin (AMC). The initial rate of this reaction, which is proportional to the amount of active NE in the sample, was measured in relative fluorescence units (RFU) and converted to the concentration of active NE in the sample. Specifically, standards were created via serial dilution of Human NE Stock Protein (Sigma, Cat. No E8140-1UN, see Table 1A) in a standard diluent, which matched the ratio of lysis buffer to Enzyme Buffer (sample diluent) of the sample dilutions on a multi-well plate. Sample dilutions were created on the plate using Enzyme Buffer as the diluent. A 1:25 dilution of either DMSO or NE inhibitor (Abcam, Cat. No ab142154, final concentration 80 μM) in Assay Buffer was added to all wells and allowed to incubate at 37° C. for 15 minutes. […] The plate was immediately read at 350/450 nm (Excitation/Emission) post substrate addition in kinetic mode every 5 minutes for up to 3 hours (minimum 30 minutes) at 37° C. on a BioTek Gen5 Plate Reader. The raw data of the readings were exported into an Excel file for data analysis described below.
(§2) After NE and PR3 are extracted from a WBC pellet using a multi-step repeated pellet lysis process, total NE and PR3 activity in cell lysates may be determined by individually assaying each cell lysate from each lysis step for the enzyme activity and calculating the total activity. Alternatively, the total activity may be determined by pooling the cell lysates for a single NE or PR3 activity assay. […]
(§3) In the trial, subjects were randomized in a 1:1:1 ratio to 3 treatment arms to receive either (i) 10 mg brensocatib once daily; (ii) 25 mg brensocatib once daily, or (iii) matching placebo once daily. […] The time to the first pulmonary exacerbation (primary end point), the rate of pulmonary exacerbations (secondary end point), change in concentration of active NE in sputum, and safety were assessed. […]

active CatG = assay: Active CatG concentration in patients' sputum samples (kinetic CatG assay); details: for % reduction from baseline in sputum samples, active CatG: week 4, reduction in geometric mean
Description: CatG activity was measured in an enzymatic assay using an exogenous peptide substrate. Cleavage of the substrate generated the chromophore or fluorophore reaction product, p-Nitroaniline (pNA), 6-Carboxytetramethylrhodamine (6-TAMRA) or 7-Methoxycoumarin-4-acetic acid (MCA). The initial rate of this reaction is proportional to the amount of active CatG in a sample and was measured in absorbance (ABS) or fluorescence (RFU), depending on the substrate, and converted to the concentration of active CatG in the sample. Specifically, standards were created via serial dilution of stock human CatG protein (Sigma, Cat. No C4428-.25UN) in a standard diluent which matched the ratio of lysis buffer to Enzyme Buffer (sample diluent) of the sample dilutions on plate. Sample dilutions were created on the plate using Enzyme Buffer as the diluent and/or run neat. […] The plate was immediately read at appropriate wavelength according to Table 1B post substrate addition in kinetic mode every 5 minutes for 1.5 hours at 37° C. on a BioTek's Synergy Neo or BioTek's Synergy HIM plate reader with Gen5 Software. […]
as §3
In this example, we further determined the changes from baseline in the concentrations of active PR3 and CatG in the same sputum samples obtained from the patients in the three treatment arms using the kinetic PR3 and CatG assays described in the previous examples, and compared the changes with those of active NE. Additionally, we extracted NE and PR3 from the white blood cells (WBCs) derived from the patients' blood samples, and determined the changes from baseline in the concentrations of active NE and PR3 in the WBC samples using the methods described in Example 7. […]

active PR3 [2] = assay: Active PR3 concentration in patients' WBC samples (kinetic PR3 assay); details: for % reduction from baseline in WBC samples, active PR3: week 4, reduction in arithmetic mean
Description: (§4) Except for using an exogenous peptide substrate specific for PR3 instead of NE, the PR3 kinetic assay is based on the same principle as the NE kinetic assay described above. Cleavage of PR3 Substrate by PR3 present in the sample generated the fluorophore reaction product 2-Aminobenzoyl or Anthraniloyl (Abz). The initial rate of this reaction, which is proportional to the amount of active PR3 in the sample, was measured in RFU and converted to the concentration of active PR3 in the sample. Specifically, standards were created via serial dilution of Human PR3 Stock Protein (Sigma, Cat. No SRP6309-25UG, see Table 1A) in a standard diluent which matched the ratio of lysis buffer to Enzyme Buffer (sample diluent) of the sample dilutions on a multi-well plate. Sample dilutions were created on the plate using Enzyme Buffer as the diluent. A 1:20 dilution of either DMSO or PR3 inhibitor (Abcam, Cat. No ab146184, final concentration 500 μM) in Assay Buffer was added to all wells and allowed to incubate at 37° C. for 15 minutes. Addition of DMSO was used as a placeholder in case future testing required addition of inhibitors for subtraction of nonspecific activity-induced cleavage. Following incubation, PR3 Substrate (Abz-VADCADQ-Lys(DNP), final concentration 100 μM) diluted in Assay Buffer was added to the sample and control wells in that order, and briefly mixed via pipetting 2-3 times. The plate was immediately read at 340/430 nm (Excitation/Emission) post substrate addition in kinetic mode every 5 minutes for up to 3 hours (minimum 30 minutes) at 37° C. on a BioTek Gen5 Plate Reader. The raw data of the readings were exported into an Excel file for data analysis described below.
as §2

active NE [3] = assay: Active NE concentration in patients' sputum samples; details: for % reduction from baseline in sputum samples, active NE: week 4, reduction in geometric mean
Description: as §1, §3
(§5) In this example, we further determined the changes from baseline in the concentrations of active PR3 and CatG in the same sputum samples obtained from the patients in the three treatment arms using the kinetic PR3 and CatG assays described in the previous examples, and compared the changes with those of active NE. […]

active PR3 [4] = assay: Active PR3 concentration in patients' sputum samples (kinetic PR3 assay); details: for % reduction from baseline in sputum samples, active PR3: week 4, reduction in geometric mean
Description: as §4, with “Addition of DMSO was used as a placeholder in case future testing required addition of inhibitors for subtraction of nonspecific activity-induced cleavage. Following incubation, PR3 Substrate (Abz-VADCADQ-Lys(DNP), final concentration 100 μM) diluted in Assay Buffer was added to the sample and control wells in that order, and briefly mixed via pipetting 2-3 times.” left out
as §3, §5

[5] = tested on: patients with non-cystic fibrosis bronchiectasis (NCFBE); assay: Phase 2 randomized, double-blind, placebo-controlled trial: pulmonary exacerbations; details: for reduction in the frequency of pulmonary exacerbations as compared to placebo: once daily 24 weeks; for time to the first pulmonary exacerbation (primary end point): vs placebo
Description: We have conducted a phase 2, randomized, double-blind, placebo-controlled trial to assess the efficacy, safety and tolerability, and pharmacokinetics of (2S)—N-{(1S)-1-cyano-2-[4-(3-methyl-2-oxo-2,3-dihydro-1,3-benzoxazol-5-yl) phenyl] ethyl}-1,4-oxazepane-2-carboxamide (brensocatib) administered once daily for 24 weeks in patients with non-cystic fibrosis bronchiectasis (NCFBE). See the details and results of the trial in N Engl J Med. 383(22):2127-2137 (2020); incorporated herein by reference in its entirety for all purposes.
In the trial, subjects were randomized in a 1:1:1 ratio to 3 treatment arms to receive either (i) 10 mg brensocatib once daily; (ii) 25 mg brensocatib once daily, or (iii) matching placebo once daily. Following a screening visit (Visit 1) and a screening period of up to 6 weeks, subjects were randomized at Visit 2 (Day 1, “Baseline”) and returned thereafter for study visits at 2 weeks (Visit 3), 4 weeks (Visit 4), 8 weeks (Visit 5), 12 weeks (Visit 6), 16 weeks (Visit 7), 20 weeks (Visit 8), 24 weeks (Visit 9, end of treatment) and 28 weeks (Visit 10, end of study). During each visit, assessments and procedures were performed, including collection of blood and sputum samples at baseline and weeks 2, 4, 12, 24, and 28 for biomarker assessment. Study treatment occurred between Visits 2-9. The time to the first pulmonary exacerbation (primary end point), the rate of pulmonary exacerbations (secondary end point), change in concentration of active NE in sputum, and safety were assessed. […] Specifically, patients treated with brensocatib experienced a 36% reduction in the 10 mg arm (p=0.04) and a 25% reduction in the 25 mg arm (p=0.17).

Cn1c(=O)oc2ccc(-c3ccc(C[C@@H](C#N)NC(=O)[C@@H]4CNCCCO4)cc3)cc21 [brensocatib, (2S)—N-{(1S)-1-cyano-2-[4-(3-methyl-2-oxo-2,3-dihydro-1,3-benzoxazol-5-yl)phenyl]ethyl}-1,4-oxazepane-2-carboxamide]
change from baseline in concentration of active NE in WBC samples (time course) (active NE [1]; 10 mg and 25 mg arms, 24-week treatment, FIG. 14A): reduced by brensocatib treatment by week 4 in a dose-dependent manner | % reduction from baseline in WBC samples, active NE (active NE [1]; 10 mg daily, week 4, reduction in arithmetic mean): 19% | time for reduced active NE concentrations in WBC samples to recover to baseline levels after the end of the treatment period (active NE [1]; after 24-week treatment, FIG. 14A): about 4 weeks | change from baseline in sputum concentration of active CatG (time course) (active CatG; 10 mg and 25 mg arms, FIG. 13C): reduced by brensocatib treatment by week 4 in a dose-dependent manner | % reduction from baseline in sputum samples, active CatG (active CatG; 10 mg daily): 90% | % reduction from baseline in sputum samples, active CatG (active CatG; 25 mg daily): 93% | change from baseline in concentration of active PR3 in WBC samples (time course) (active PR3 [2]; 10 mg and 25 mg arms, FIG. 14B): reduced by brensocatib treatment to a lesser extent than the active NE concentrations | % reduction from baseline in WBC samples, active PR3 (active PR3 [2]; 10 mg daily): No reduction | % reduction from baseline in WBC samples, active PR3 (active PR3 [2]; 25 mg daily): 34% | change from baseline in sputum concentration of active NE (time course) (active NE [3]; 10 mg and 25 mg arms, FIG. 13A): reduced by brensocatib treatment by week 4 in a dose-dependent manner | % reduction from baseline in sputum samples, active NE (active NE [3]; 10 mg daily): 86% | % reduction from baseline in sputum samples, active NE (active NE [3]; 25 mg daily): 91% | change from baseline in sputum concentration of active PR3 (time course) (active PR3 [4]; 10 mg and 25 mg arms, FIG. 13B): reduced by brensocatib treatment by week 4 in a dose-dependent manner | % reduction from baseline in sputum samples, active PR3 (active PR3 [4]; 10 mg daily): 21% | % reduction from baseline in sputum samples, active PR3 (active PR3 [4]; 25 mg daily): 53% | reduction in the frequency of pulmonary exacerbations as compared to placebo ([5]; 10 mg arm, p=0.04): 36% | time to the first pulmonary exacerbation (primary end point) ([5]; 10 mg once daily for 24 weeks, p=0.03): prolonged the time to the first exacerbation | reduction in the frequency of pulmonary exacerbations as compared to placebo ([5]; 25 mg arm, p=0.17): 25% | time to the first pulmonary exacerbation (primary end point) ([5]; 25 mg once daily for 24 weeks, p=0.04): prolonged the time to the first exacerbation
